# The kinase profiling compilation of Christmann-Franck et al. (2016)
# Experiments:
# Assay in all cases: radiometric filter-binding kinase assay
# MAP3K9 (human) = MAP3K9 (human) (UniProt P80192)
# CSNK2A1 (human) = CSNK2A1 (human) (UniProt P68400)
# ERBB4 (human) = ERBB4 (human) (UniProt Q15303)
# CHEK2 (human) = CHEK2 (human) (UniProt O96017)
# INSRR (human) = INSRR (human) (UniProt P14616)
# IKBKB (human) = IKBKB (human) (UniProt O14920)
# PRKAA1 or PRKAA2 (rat) = details: accession and sequence are those of the human protein
# NTRK1 (human) = NTRK1 (human) (UniProt P04629)
# GSK3B (human) = GSK3B (human) (UniProt P49841)
# [1] = target: STK11 CAB39 STRADA (human) (UniProt Q9Y376+Q7RTN6+Q15831)
# EPHB3 (human) = EPHB3 (human) (UniProt P54753)
# PRKACA (human) = PRKACA (human) (UniProt P17612)
# PRKCZ (human) = PRKCZ (human) (UniProt Q05513)
# CSK (human) = CSK (human) (UniProt P41240)
# MYLK (human) = MYLK (human) (UniProt Q15746)
# EEF2K (human) = EEF2K (human) (UniProt O00418)
# PHKG1 (human) = PHKG1 (human) (UniProt Q16816)
# CDK2 CCNA2 (human) = CDK2 CCNA2 (human) (UniProt P20248+P24941)
# EEF2K (human), sequence (O00418 whole entry, looked up): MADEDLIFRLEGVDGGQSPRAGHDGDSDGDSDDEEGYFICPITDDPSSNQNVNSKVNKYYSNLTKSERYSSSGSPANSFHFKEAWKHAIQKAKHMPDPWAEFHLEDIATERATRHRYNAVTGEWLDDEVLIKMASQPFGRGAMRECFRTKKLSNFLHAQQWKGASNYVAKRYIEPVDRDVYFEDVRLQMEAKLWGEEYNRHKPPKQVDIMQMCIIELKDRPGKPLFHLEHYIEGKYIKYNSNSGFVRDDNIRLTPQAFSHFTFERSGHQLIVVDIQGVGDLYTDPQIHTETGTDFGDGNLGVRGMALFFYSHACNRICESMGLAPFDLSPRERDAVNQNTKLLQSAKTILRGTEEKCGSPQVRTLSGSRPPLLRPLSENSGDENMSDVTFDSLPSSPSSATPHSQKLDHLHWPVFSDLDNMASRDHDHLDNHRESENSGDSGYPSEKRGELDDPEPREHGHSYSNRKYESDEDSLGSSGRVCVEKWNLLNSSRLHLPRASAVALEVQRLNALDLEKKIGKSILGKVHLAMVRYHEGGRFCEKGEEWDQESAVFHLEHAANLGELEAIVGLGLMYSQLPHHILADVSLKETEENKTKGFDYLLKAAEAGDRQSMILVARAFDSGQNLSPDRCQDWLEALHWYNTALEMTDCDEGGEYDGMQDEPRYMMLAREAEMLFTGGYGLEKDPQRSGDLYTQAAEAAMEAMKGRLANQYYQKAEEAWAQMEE
# CHEK2 (human), sequence (O96017 whole entry, looked up): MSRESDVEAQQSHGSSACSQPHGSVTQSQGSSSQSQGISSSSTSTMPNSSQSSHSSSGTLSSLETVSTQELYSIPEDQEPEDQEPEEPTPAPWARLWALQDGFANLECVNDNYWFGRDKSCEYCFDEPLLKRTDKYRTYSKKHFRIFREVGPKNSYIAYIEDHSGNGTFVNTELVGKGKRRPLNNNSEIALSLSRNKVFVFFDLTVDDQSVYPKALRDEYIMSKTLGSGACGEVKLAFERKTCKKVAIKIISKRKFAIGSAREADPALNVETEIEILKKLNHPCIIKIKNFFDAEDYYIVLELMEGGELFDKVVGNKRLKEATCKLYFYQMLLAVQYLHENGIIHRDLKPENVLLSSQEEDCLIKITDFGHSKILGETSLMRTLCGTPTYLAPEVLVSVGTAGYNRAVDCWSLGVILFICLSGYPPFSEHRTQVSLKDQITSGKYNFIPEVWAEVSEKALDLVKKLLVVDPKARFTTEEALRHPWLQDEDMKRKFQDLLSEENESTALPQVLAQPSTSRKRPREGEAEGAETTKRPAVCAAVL
# STK11 CAB39 STRADA (human), sequence (Q15831 whole entry, looked up): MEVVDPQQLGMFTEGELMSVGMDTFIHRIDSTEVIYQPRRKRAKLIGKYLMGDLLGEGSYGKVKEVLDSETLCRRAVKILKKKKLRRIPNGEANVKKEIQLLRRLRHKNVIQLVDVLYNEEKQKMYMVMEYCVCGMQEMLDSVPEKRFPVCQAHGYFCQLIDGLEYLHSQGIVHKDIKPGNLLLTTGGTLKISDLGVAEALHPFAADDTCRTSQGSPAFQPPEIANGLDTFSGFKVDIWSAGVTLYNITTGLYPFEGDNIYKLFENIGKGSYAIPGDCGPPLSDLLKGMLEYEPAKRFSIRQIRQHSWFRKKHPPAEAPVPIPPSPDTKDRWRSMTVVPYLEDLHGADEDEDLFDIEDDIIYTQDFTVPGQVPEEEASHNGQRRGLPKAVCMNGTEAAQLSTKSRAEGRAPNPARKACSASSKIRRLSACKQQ
# STK11 CAB39 STRADA (human), sequence (Q7RTN6 whole entry, looked up): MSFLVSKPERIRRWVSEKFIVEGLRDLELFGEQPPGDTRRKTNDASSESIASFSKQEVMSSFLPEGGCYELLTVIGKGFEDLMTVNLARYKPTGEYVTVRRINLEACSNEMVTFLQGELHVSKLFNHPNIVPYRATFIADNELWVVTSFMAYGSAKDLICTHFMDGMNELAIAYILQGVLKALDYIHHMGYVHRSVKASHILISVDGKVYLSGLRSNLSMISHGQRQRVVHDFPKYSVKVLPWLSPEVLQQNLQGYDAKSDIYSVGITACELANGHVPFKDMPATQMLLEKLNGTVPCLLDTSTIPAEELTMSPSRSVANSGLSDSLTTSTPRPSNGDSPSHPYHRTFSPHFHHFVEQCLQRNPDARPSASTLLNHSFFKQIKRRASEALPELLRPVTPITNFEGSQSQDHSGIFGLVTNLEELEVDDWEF
# STK11 CAB39 STRADA (human), sequence (Q9Y376 whole entry, looked up): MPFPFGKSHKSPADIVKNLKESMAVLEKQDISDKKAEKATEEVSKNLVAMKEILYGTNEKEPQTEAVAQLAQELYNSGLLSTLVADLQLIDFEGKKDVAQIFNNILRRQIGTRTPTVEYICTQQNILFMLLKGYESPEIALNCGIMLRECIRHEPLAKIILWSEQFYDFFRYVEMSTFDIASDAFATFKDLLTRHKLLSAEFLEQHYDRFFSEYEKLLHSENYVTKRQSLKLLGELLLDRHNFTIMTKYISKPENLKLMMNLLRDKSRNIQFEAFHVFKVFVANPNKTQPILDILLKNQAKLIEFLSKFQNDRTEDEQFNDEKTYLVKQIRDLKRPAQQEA
# MYLK (human), sequence (Q15746 whole entry, looked up): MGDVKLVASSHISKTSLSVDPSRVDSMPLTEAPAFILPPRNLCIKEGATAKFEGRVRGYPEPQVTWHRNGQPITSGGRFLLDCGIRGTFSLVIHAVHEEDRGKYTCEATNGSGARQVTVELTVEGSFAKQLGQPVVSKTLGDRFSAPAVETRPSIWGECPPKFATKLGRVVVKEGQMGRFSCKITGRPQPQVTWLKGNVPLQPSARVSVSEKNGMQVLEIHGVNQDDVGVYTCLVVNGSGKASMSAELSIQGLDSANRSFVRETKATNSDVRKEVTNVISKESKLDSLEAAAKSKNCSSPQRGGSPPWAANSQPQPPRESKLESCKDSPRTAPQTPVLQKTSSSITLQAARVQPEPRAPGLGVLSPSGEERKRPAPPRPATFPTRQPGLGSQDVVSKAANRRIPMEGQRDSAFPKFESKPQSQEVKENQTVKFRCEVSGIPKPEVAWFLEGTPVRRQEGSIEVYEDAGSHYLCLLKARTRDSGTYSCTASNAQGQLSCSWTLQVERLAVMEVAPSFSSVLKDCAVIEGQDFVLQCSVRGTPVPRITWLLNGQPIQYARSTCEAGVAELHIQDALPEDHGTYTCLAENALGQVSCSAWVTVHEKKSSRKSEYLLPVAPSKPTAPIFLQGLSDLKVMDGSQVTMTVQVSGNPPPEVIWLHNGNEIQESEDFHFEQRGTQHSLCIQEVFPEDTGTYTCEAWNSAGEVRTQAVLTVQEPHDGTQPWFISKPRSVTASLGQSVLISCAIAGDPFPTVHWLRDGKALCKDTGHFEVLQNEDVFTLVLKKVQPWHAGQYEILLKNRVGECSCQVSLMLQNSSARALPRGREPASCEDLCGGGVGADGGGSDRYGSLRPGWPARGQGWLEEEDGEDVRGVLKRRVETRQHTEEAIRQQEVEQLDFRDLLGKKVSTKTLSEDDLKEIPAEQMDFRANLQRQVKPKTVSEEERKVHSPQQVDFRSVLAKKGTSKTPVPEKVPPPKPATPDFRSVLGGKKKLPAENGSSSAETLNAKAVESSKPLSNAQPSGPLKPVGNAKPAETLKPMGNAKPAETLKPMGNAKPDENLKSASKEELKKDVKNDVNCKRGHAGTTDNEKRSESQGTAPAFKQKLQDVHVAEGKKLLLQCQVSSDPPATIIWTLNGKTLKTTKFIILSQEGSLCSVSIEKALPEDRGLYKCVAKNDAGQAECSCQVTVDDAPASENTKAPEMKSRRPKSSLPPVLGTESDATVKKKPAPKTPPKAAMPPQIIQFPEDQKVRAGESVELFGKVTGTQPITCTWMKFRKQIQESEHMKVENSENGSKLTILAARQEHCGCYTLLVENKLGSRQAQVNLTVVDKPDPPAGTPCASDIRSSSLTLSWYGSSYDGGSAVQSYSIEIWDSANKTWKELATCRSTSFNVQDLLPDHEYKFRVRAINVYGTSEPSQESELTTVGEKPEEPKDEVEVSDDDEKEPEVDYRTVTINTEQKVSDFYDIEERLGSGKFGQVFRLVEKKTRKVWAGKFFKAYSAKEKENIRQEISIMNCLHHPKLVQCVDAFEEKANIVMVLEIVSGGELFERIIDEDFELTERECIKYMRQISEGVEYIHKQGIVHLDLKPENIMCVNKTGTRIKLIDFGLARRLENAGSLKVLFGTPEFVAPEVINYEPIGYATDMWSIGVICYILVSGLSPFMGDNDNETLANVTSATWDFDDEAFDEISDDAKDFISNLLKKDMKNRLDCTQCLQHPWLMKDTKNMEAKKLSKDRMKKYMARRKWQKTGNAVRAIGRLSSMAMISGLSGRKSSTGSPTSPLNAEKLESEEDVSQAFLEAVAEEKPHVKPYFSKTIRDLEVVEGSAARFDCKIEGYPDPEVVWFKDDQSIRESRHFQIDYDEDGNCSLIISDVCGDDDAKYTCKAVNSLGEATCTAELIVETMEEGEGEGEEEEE
# CSNK2A1 (human), sequence (P68400 whole entry, looked up): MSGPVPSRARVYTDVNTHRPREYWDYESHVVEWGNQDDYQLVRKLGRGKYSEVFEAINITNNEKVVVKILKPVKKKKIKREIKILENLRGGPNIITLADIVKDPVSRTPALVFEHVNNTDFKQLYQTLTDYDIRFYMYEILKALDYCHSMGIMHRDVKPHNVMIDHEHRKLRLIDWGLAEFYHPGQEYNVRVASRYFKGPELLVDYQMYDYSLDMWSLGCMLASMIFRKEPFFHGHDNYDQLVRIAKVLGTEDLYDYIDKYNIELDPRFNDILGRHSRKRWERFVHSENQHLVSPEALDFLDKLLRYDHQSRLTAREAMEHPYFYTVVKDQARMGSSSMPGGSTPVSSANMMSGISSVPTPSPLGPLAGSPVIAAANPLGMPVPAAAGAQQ
compound,measurement,setting,value
c1ccc2c(-c3cnn4cc(-c5ccc(N6CCNCC6)cc5)cnc34)ccnc2c1,residual activity,MAP3K9 (human); compound 0.1 µM,104%
same,residual activity,MAP3K9 (human); compound 1.0 µM,70%
same,residual activity,CSNK2A1 (human); compound 0.1 µM,90%
same,residual activity,CSNK2A1 (human); compound 1.0 µM,89%
same,residual activity,CSNK2A1 (human); compound 10.0 µM,81%
same,residual activity,ERBB4 (human); compound 0.1 µM,88%
same,residual activity,ERBB4 (human); compound 1.0 µM,76%
same,residual activity,ERBB4 (human); compound 10.0 µM,56%
same,residual activity,CHEK2 (human); compound 0.1 µM,99%
same,residual activity,CHEK2 (human); compound 1.0 µM,103%
same,residual activity,CHEK2 (human); compound 10.0 µM,59%
same,residual activity,INSRR (human); compound 0.1 µM,82%
same,residual activity,INSRR (human); compound 1.0 µM,68%
same,residual activity,INSRR (human); compound 10.0 µM,37%
same,residual activity,IKBKB (human); compound 1.0 µM,98%
same,residual activity,IKBKB (human); compound 10.0 µM,83%
same,residual activity,PRKAA1 or PRKAA2 (rat); compound 0.1 µM,96%
same,residual activity,PRKAA1 or PRKAA2 (rat); compound 1.0 µM,59%
same,residual activity,PRKAA1 or PRKAA2 (rat); compound 10.0 µM,18%
same,residual activity,NTRK1 (human); compound 0.1 µM,87%
same,residual activity,NTRK1 (human); compound 1.0 µM,71%
same,residual activity,NTRK1 (human); compound 10.0 µM,38%
same,residual activity,GSK3B (human); compound 0.1 µM,81%
same,residual activity,GSK3B (human); compound 1.0 µM,83%
same,residual activity,GSK3B (human); compound 10.0 µM,62%
same,residual activity,[1]; compound 0.1 µM,109%
same,residual activity,[1]; compound 1.0 µM,98%
same,residual activity,[1]; compound 10.0 µM,80%
same,residual activity,EPHB3 (human); compound 0.1 µM,88%
same,residual activity,EPHB3 (human); compound 1.0 µM,75%
same,residual activity,EPHB3 (human); compound 10.0 µM,48%
same,residual activity,PRKACA (human); compound 0.1 µM,99%
same,residual activity,PRKACA (human); compound 1.0 µM,101%
same,residual activity,PRKACA (human); compound 10.0 µM,94%
same,residual activity,PRKCZ (human); compound 0.1 µM,88%
same,residual activity,PRKCZ (human); compound 1.0 µM,93%
same,residual activity,PRKCZ (human); compound 10.0 µM,55%
same,residual activity,CSK (human); compound 0.1 µM,95%
same,residual activity,CSK (human); compound 1.0 µM,103%
same,residual activity,CSK (human); compound 10.0 µM,72%
same,residual activity,MYLK (human); compound 0.1 µM,104%
same,residual activity,MYLK (human); compound 1.0 µM,107%
same,residual activity,MYLK (human); compound 10.0 µM,60%
same,residual activity,EEF2K (human); compound 0.1 µM,95%
same,residual activity,EEF2K (human); compound 1.0 µM,96%
same,residual activity,EEF2K (human); compound 10.0 µM,79%
same,residual activity,PHKG1 (human); compound 0.1 µM,85%
same,residual activity,PHKG1 (human); compound 1.0 µM,60%
same,residual activity,PHKG1 (human); compound 10.0 µM,21%
same,residual activity,CDK2 CCNA2 (human); compound 0.1 µM,84%
same,residual activity,CDK2 CCNA2 (human); compound 1.0 µM,84%
